Results reported in article PMC10799085, “A miniaturized mode-of-action profiling platform enables high throughput characterization of the molecular and cellular dynamics of EZH2 inhibition” (Scientific Reports, 2024).
“And” between values parts separate entries of the source, which are not always exact repeats. Identical values can stand only once. Like-named read-outs stand apart in the source and are kept apart here. One block for each compound: values may come before it.

Experiments:
[1] = biological target: T1, PRC2/EZH2Y641N (Homo sapiens, UniProt Q15910, Y641N); experiment: Kinetic probe competition assay (kPCA), TR-FRET; type: binding; conditions: calculated
T1 construct: Synthetic cDNA encoding N-terminal 6His-tagged full length EZH2^Y641N; 6His (N); made in house; host or cells: Sf9 insect cells (baculovirus co-infection)
Text: (§1) Biotinylated PRC2 complexes and the fluorescent probe used in TR-FRET assays were generated as described in the supplementary methods section.

[2] = biological target: T2, PRC2/EZH2+/+ (Homo sapiens, UniProt Q15910); experiment: Equilibrium binding thermodynamics (van't Hoff analysis of ePCA/kPCA at 5-37 °C); conditions: ePCA at 5-37 °C, wild type EZH2
T2 construct: purchased Active Motif
Protocol: For thermodynamic analysis of the binding to EZH2+/+ the probe characterization, equilibrium and kinetic probe competition assays described above (previously conducted at 25 °C) were performed at 5, 15, 30 and 37 °C. […] For measurements at 25, 30 and 37 °C, the temperature control functionality of the instrument was used.
Equilibrium and kinetic binding constants obtained at various temperatures were used to determine the thermodynamic parameters by van’t Hoff and Eyring analysis, as described elsewhere for SPR and radioligand binding experiments[46],[69]. For the van’t Hoff thermodynamic analysis, changes in entropy ΔS° and enthalpy ΔH° were estimated by linear regression using the van’t Hoff equation. lnKA=ΔS^∘/R-ΔH^∘/RT,
Changes in Gibb’s free energy ΔG° were calculated according to. ΔG^∘T=ΔH^∘-T×ΔS^∘
Additionally, the possible temperature dependence of the thermodynamic parameters was considered using the integrated form of the van’t Hoff equation[47] for nonlinear regression to yield the changes in entropy, enthalpy, and heat capacity ΔCp: ln KA=-ΔH^∘T^∘/RT+ΔS^∘T^∘/R+ΔCp/R[T-T^∘/T-lnT/T^∘],

[3] = in vitro; type: in vitro ADME; conditions: 2 µM, 2 h, 37 °C, basolateral to apical
Protocol: Cells were kept at 37 °C in a humidified 5% CO2 atmosphere. Before the permeation assay was run, the culture medium was replaced by an FCS-free HEPES carbonate transport buffer (pH 7.2). For assessment of monolayer integrity, the transepithelial electrical resistance was measured. Test compounds were pre-dissolved in DMSO and added either to the apical or basolateral compartment at a final concentration of 2 µM. Before and after 2 h incubation at 37 °C, samples were taken from both compartments. Analysis of compound content was conducted after precipitation with methanol by LC/MS/MS analysis. Reference compounds were analyzed in parallel as assay control. Permeability (Papp) was calculated in the apical to basolateral (A → B) and basolateral to apical (B → A) directions. The efflux ratio basolateral (B) to apical (A) was calculated by dividing Papp B–A by Papp A–B.

[4] = biological target: T2, PRC2/EZH2+/+; experiment: Kinetic probe competition assay (kPCA), TR-FRET; type: binding
Protocol: as §1
For measurements at 25, 30 and 37 °C, the temperature control functionality of the instrument was used.
TR-FRET kPCA traces were exported via Microsoft Excel to GraphPad Prism, where non-specific signals were subtracted and kinetic association competition traces were fitted to the Motulsky–Mahan model “kinetics of competitive binding” to obtain kon (k3), koff (k4) and KD parameters.

[5] = tested on: KARPAS-422 cells; experiment: Cellular proliferation assay (AlamarBlue, 144 h); type: cell-based; conditions: KARPAS-422 cells, 6-day (144 h), AlamarBlue; read-out: KARPAS (6-day) Anti-proliferation IC50
Protocol: Cell viability was determined by means of the AlamarBlue® reagent (Thermo Fisher Scientific) following instructions from the manufacturer. […] Anti-proliferative IC50s were calculated by fitting the normalized AlamarBlue® fluorescence values to a 4-parameter logistic equation using the Electronic Notebook (ELN) software from IDBS.

[6] = biological target: T3, PRC2/EZH1 (Homo sapiens, UniProt Q92800); experiment: Scintillation proximity assay (SPA) of H3K27 methylation; type: biochemical
T3 construct: N-terminal 6His-tagged full length EZH2^Y641N, EZH2^Y111L, EZH2^Y111D, EZH2^Y641N, Y661DEZH2, EZH1; 6His (N); made in house; host or cells: Sf9 insect cells (baculovirus co-infection)
Protocol: Assay-ready plates containing 50 nl of compound dilutions and DMSO controls were filled with 2.5 µL enzyme solution and pre-incubated for 15 min. […] Experiments were also performed without pre-incubation of enzyme and compounds. In this case, the substrate solution was added before enzyme. The reaction was stopped using 1.6 µg/µl streptavidin beads (Perkin Elmer) and 700 µM of SAM (Perkin Elmer). The plates were sealed with transparent foil.
For equilibrium binding competition (ePCA) and SPA enzyme inhibition assays, raw data import, quality control, normalization, and curve fitting to a 4-parameter logistic equation for IC50 determination were performed using the Genedata Screener® software (Genedata AG). ePCA Ki values were either calculated using the Cheng-Prussof equation[68] or with the GraphPad Prism model “One-site—Fit Ki”.

[7] = tested on: H3K27me3 mark in MDA-MB-231 cells; experiment: High content analysis (HCA) of cellular H3K27me3 mark, washout format; type: cell-based; conditions: for IC50: H3K27 methylation HCA, read-out: Mean IC50
Protocol: In the low- and high-signal control wells, test compounds were replaced by 10 µM of EZH2 inhibitor (equal to unlabeled probe from ePCA and kPCA) or DMSO, respectively. […] After fixation, the cells were washed with PBS and incubated with 1% BSA blocking solution at RT for 1 h. Blocking solution was discarded, primary monoclonal antibody rabbit Tri-methyl-histone H3K27 (C36B11, Cell signaling) diluted 1:200 in blocking solution was added and incubated overnight at 4 °C. […] Afterwards, cells were washed three times with PBS and incubated at 4 °C until measuring. Fluorescence signals were captured by an Opera Phenix™ High Content Screening (HCA) system (Perkin Elmer) by 10× magnification. […] Microscopy images were initially visualized and preprocessed with MetaXpress High Content Image Acquisition & Analysis Software (Molecular Devices) as previously described. Raw data import, normalization, quality control and fitting curves for IC50 determination of tested compounds were done with Genedata Screener® for high-content screening. Wells with no recognizable signals were masked and the average intensity of the trimethylation signal was normalized to the DMSO control (0%).

[8] = biological target: T1, PRC2/EZH2Y641N; experiment: Equilibrium titration of the fluorescent probe, TR-FRET, -/+ H3K27me3 activator peptide; type: binding; conditions: EZH2 Y641N, 25 °C
[9] = biological target: T1, PRC2/EZH2Y641N; experiment: Kinetic titration (association then dissociation) of the fluorescent probe, TR-FRET; type: binding; conditions: EZH2 Y641N, 25 °C; for Kinetic koff / Kinetic kon: listed as fluorescent EZH2 probe
[10] = biological target: T2, PRC2/EZH2+/+; experiment: Equilibrium titration of the fluorescent probe, TR-FRET, -/+ H3K27me3 activator peptide; type: binding
[11] = biological target: T2, PRC2/EZH2+/+; experiment: Kinetic titration (association then dissociation) of the fluorescent probe, TR-FRET; type: binding; conditions: for Kinetic koff / Kinetic kon: listed as fluorescent EZH2 probe
[12] = tested on: EZH2; design: method as in Konze et al. [41]; conditions: 40-fold higher enzyme concentration; ref Konze et al. [41]; cited from earlier work

Compound: CC[C@H](C)n1cc(C)c2c(C(=O)NCc3c(C)cc(C)[nH]c3=O)cc(-c3ccc(N4CCNCC4)nc3)cc21 [Compound 4, GSK126]
Calculated RT ([1]; EZH2Y641N (+ H3K27me3)): 0.22 h
Calculated RT ([1]; EZH2Y641N (- H3K27me3)): 0.0666 h
binding driving force, polynomial van't Hoff analysis [2]: entropy-driven
PK Caco-2 Flux Papp B-A (mean) [3]: 9.838 ×10⁻⁶ cm/s
Calculated RT ([4]; EZH2+/+ (+ H3K27me3)): 0.44 h
RT (Calculated) ([4]; EZH2+/+ (- H3K27me3), 15 °C): 0.0145 h
RT (Calculated) ([4]; EZH2+/+ (- H3K27me3), 30 °C): 0.031 h
RT (Calculated) ([4]; EZH2+/+ (- H3K27me3), 37 °C): 0.0092 h
Calculated RT ([4]; EZH2+/+ (- H3K27me3)): 0.06 h
IC50 [5]: 280 nM
IC50 ([6]; 0' enzyme:inhibitor pre-incubation, read-out: SPA Mean IC50 (M) - 0' enzyme:inhibitor pre-incubation EZH1): 1.1e-06 M
IC50 ([6]; 15' enzyme:inhibitor pre-incubation, read-out: SPA Mean IC50 (M) - 15' enzyme:inhibitor pre-incubation EZH1): 4.4e-07 M
IC50 ([6]; 60' enzyme:inhibitor pre-incubation, read-out: SPA Mean IC50 (M) - 60' enzyme:inhibitor pre-incubation EZH1): 1e-06 M
IC50 ([7]; incubation time 0.5 h, washout time 71.5 h): 5800 nM
IC50 ([7]; incubation time 1 h, washout time 71 h): 2900 nM
IC50 ([7]; incubation time 2 h, washout time 70 h): 2400 nM
IC50 ([7]; incubation time 4 h, washout time 68 h): 1800 nM
IC50 ([7]; incubation time 24 h, washout time 48 h): 1400 nM
IC50 ([7]; incubation time 48 h, washout time 24 h): 700 nM
IC50 ([7]; incubation time 72 h, washout time 0 h): 310 nM
AUC (a.u.) ([7]; HCA H3K27 methylation washout pIC50 AUC over all incubation/washout times): 81.2 a.u.

Kd ([8]; with H3K27me3 (AP)): 2.7 nM and 2.72 nM
Kd ([8]; without H3K27me3 (AP)): 9.56 nM
Kd ([9]; with AP): 3.8 nM and 3.76 nM
koff ([9]; with AP): 0.0035 s⁻¹
kon ([9]; with AP): 1e+06 M⁻¹ s⁻¹
Kinetic koff ([9]; with AP): 0.00345 s⁻¹
Kinetic kon ([9]; with AP): 1.01e+06 M⁻¹ s⁻¹
Kd ([9]; without AP): 27 nM
koff ([9]; without AP): 0.018 s⁻¹
kon ([9]; without AP): 680000 M⁻¹ s⁻¹
Kinetic koff ([9]; without AP): 0.0177 s⁻¹
Kinetic kon ([9]; without AP): 679000 M⁻¹ s⁻¹
Kd ([10]; EZH2+/+, with H3K27me3 (AP), 25 °C, read-out: Equilibrium KD): 0.39 nM and 0.393 nM
Kd ([10]; EZH2+/+, without H3K27me3 (AP), 25 °C, read-out: Equilibrium KD): 1.13 nM
Kd ([10]; wild type EZH2, absence of H3K27me3 peptide, read-out: affinity in equilibrium conditions): 1.1 ± 0.2 nM
Kd ([10]; wild type EZH2, saturating concentrations of H3K27me3 peptide, read-out: affinity in equilibrium conditions): 0.4 ± 0.01 nM
Kd ([11]; with AP, 25 °C): 0.65 nM and 0.653 nM
koff ([11]; with AP, 25 °C): 0.00073 s⁻¹
kon ([11]; with AP, 25 °C): 1.2e+06 M⁻¹ s⁻¹
Kinetic koff ([11]; with AP, 25 °C): 0.000728 s⁻¹
Kinetic kon ([11]; with AP, 25 °C): 1.16e+06 M⁻¹ s⁻¹
Kd ([11]; without AP, 5 °C): 1.16 nM
koff ([11]; without AP, 5 °C): 0.000177 s⁻¹
kon ([11]; without AP, 5 °C): 152000 M⁻¹ s⁻¹
Kd ([11]; without AP, 15 °C): 0.53 nM
koff ([11]; without AP, 15 °C): 0.000505 s⁻¹
kon ([11]; without AP, 15 °C): 953000 M⁻¹ s⁻¹
Kd ([11]; without AP, 25 °C): 1.4 nM and 1.43 nM
koff ([11]; without AP, 25 °C): 0.0027 s⁻¹
kon ([11]; without AP, 25 °C): 2e+06 M⁻¹ s⁻¹
Kinetic koff ([11]; without AP, 25 °C): 0.00273 s⁻¹
Kinetic kon ([11]; without AP, 25 °C): 1.96e+06 M⁻¹ s⁻¹
Kd ([11]; without AP, 30 °C): 5.98 nM
koff ([11]; without AP, 30 °C): 0.0051 s⁻¹
kon ([11]; without AP, 30 °C): 853000 M⁻¹ s⁻¹
Kd ([11]; without AP, 37 °C): 3.71 nM
koff ([11]; without AP, 37 °C): 0.00823 s⁻¹
kon ([11]; without AP, 37 °C): 2.22e+06 M⁻¹ s⁻¹
Compound: CCCc1cc(C)[nH]c(=O)c1CNC(=O)c1cc(-c2ccc(N3CCN(CCCCCCNC(=O)CCCCCN4\C(=C/C=C/C=C/C5=[N+](CCOC)c6ccc(S(=O)(=O)O)cc6C5(C)C)C(C)(C)c5cc(S(=O)(=O)O)ccc54)CC3)nc2)cc2c1cnn2C(C)C.O=C(O)C(F)(F)F.O=C([O-])C(F)(F)F [fluorescent probe, 2-[(1E,3E)-5-[(2Z)-3,3-dimethyl-1-{5-[(6-{4-[5-(4-{[(6-methyl-2-oxo-4-propyl-1,2-dihydropyridin-3-yl)methyl]carbamoyl}-1-(propan-2-yl)-1H-indazol-6-yl)pyridin-2-yl]piperazin-1-yl}hexyl)carbamoyl]pentyl}-5-sulfo-2,3-dihydro-1H-indol-2-ylidene]penta-1,3-dien-1-yl]-1-(2-methoxyethyl)-3,3-dimethyl-5-sulfo-3H-indol-1-ium trifluoroacetic acid trifluoroacetate]

Compound: UNC2239
IC50 [12]: 20 nM
